Values joined by “and” are separate entries in the source; they are usually repeats but may differ in a detail not shown here. Equal values may be shown once.
What was measured:
[1] = Displacement of [3H]flunitrazepam from GABAA benzodiazepine receptor in rat brain membrane; type: cell membranes
Rattus norvegicus = species: Rattus norvegicus; experiment: Displacement of [3H]flunitrazepam from GABAA benzodiazepine receptor in rat brain membrane at 10 uM; type: cell membranes

In the case of `Cc1nnc2n1-c1ccc(Cl)cc1C(c1ccccc1Cl)=NC2` [TRIAZOLAM], the IC50 [1] is reported as 1.54 nM.
For `Cc1cc(=O)nc2n1-c1ccc(Cl)cc1C(c1ccccc1Cl)=NC2`, the IC50 [1] was 8.77 nM and 1.5 nM and 4.35 nM.
Compound `CN1C(=O)CN=C(c2ccccc2)c2cc(Cl)ccc21` [DIAZEPAM] has an IC50 [1] of 21.2 nM.
For `Cc1cc(=O)n2c(n1)CN=C(c1ccccc1)c1cc(Cl)ccc1-2`, the IC50 [1] was 93.6 nM and 394 nM and the Activity (Rattus norvegicus) was 17%.
In the case of `Cc1cc(=O)nc2n1-c1ccc(Cl)cc1/C(c1ccccc1)=N\CC2`, the Activity (Rattus norvegicus) is reported as 24%.
With `Cc1cc(=O)n2c(n1)CC/N=C(/c1ccccc1)c1cc(Cl)ccc1-2` the Activity (Rattus norvegicus) was -18%.
`Clc1ccc2c(c1)C(c1ccccc1)=NCc1nncn1-2` [ESTAZOLAM] showed an IC50 [1] of 46.6 nM.
